The text below walks through data of patent publication US20250263395A1, “COMPOUNDS THAT MEDIATE PROTEIN DEGRADATION AND METHODS OF USE THEREOF” (Monte Rosa Therapeutics AG, priority 2022, published 2025).

One assay has as its target CDK2 (Homo sapiens (Human), UniProt P24941). Description: CDK2 NanoBiT assay (HiBiT-tagged CDK2 degradation). Particulars: C-terminal HiBiT tag on CDK2, LgBiT, 24 hours. The class given is cell-based. The protocol:
Example 145. NanoBiT Assay
A HEK293 clonal line with a CRISPR knock-in C-terminal HiBiT tag on CDK2 and stably expressing LgBiT protein was obtained from Promega (Madison, WI). Cells were plated at 5000 cells per well using Multiflo (BioTek) in 384-well white solid bottom plates (Corning, 3570BC) in 25 ul volume in DMEM media (DMEM, high glucose, HEPES, no phenol red (ThermoFisher Scientific, 21063029)) containing 10% FBS (Corning, 35-075-CV), 1% Peniciliin/Streptomycin ((ThermoFisher Scientific, 15140-122), and 1% Endurazine (Nano-Glo Endurazine Live Cell Substrate (Promega, N2571)). Cells were incubated for 16 hours at 37 C, 5% CO2. 75 nL of a compound at 30 μM were dosed into the plate using an Echo® 650 liquid handler (Labcyte). Cells were incubated at 37° C., 5% CO2 for 24 hours and then signal was read on a Pherastar FSX using “LUM plus” optic module.
Analysis was performed in Scinamic (Scinamic, Cambridge, MA). Luminescence response (R) was calculated by the formula: response=100*(S−N)/(P−N) where S is the signal of the well, N and P the mean negative and positive control values respectively of the same plate. The luminescence response was then fitted in Scinamic using a 3-parameter agonist logistic fit (hillslope=1, EC50>0, top/bottom unconstrained).

The next assay concerns the target CRBN-DDB1 (Homo sapiens (Human), UniProt Q96SW2). Description: CRBN HTRF assay (Cy5-Thalidomide probe displacement). Particulars: CRBN-DDB1 2.5 nM, Cy5-Thalidomide 100 nM, 30 min; Ki from geometric mean IC50 by Cheng-Prusoff. It counts as binding. As for the experimental part:
Compound activity was monitored in a Homogenous Time-Resolved Fluorescence (HTRF) assay using 1-[5-({2-[2-(2-{[2-(2,6-dioxopiperidin-3-yl)-1,3-dioxo-2,3-dihydro-1H-isoindol-4-yl]oxy}acetamido)ethoxy]ethyl}carbamoyl)pentyl]-3,3-dimethyl-2-[(1E,3E)-5-[(2E)-1,3,3-trimethyl-5-sulfo-2,3-dihydro-1H-indol-2-ylidene]penta-1,3-dien-1-yl]-3H-indol-1-ium-5-sulfonate as a fluorescent probe. Biochemical assays were conducted in Greiner white 384 well HiBase plates (Cat. No 784075-25) in 10 μL total volume. A one pot detection solution of CRBN-DDB1 (2.5 nM), Anti-His Terbium Cryptate Gold (1×, PerkinElmer Cat. #: 61HI2TLB), and Cy5-Thalidomide (100 nM, Tenova Cat.: T52461) was prepared in 20 mM HEPES, 20 mM NaCl, 0.2 mM TCEP, 0.2 mM EDTA, and 0.005% Tween20 was dispensed to each assay plate. Compounds were stored in dry, ambient temperatures at 10 mM. A 10-point, 1:3 dilution series was prepared from 10 mM stock concentrations in Echo-compatible LDV plates. 10 nL of each compound dilution series was dispensed into assays wells using an Echo 650 (Labcyte inc. USA). 10 nL of 10 mM Lenalidomide was transferred into the active-control wells for the assay and 10 nL of DMSO was transferred into the neutral-control wells. The assay was then allowed to incubate for 30 min at ambient temperature after transferring compound. Plate measurements were taken on a Pherastar FSX (BMG Labtech, Germany) using the HTRF Red filter (Ex. 337 nm, em1: 620 nm, em2: 665 nm) (Flashes: 50, Integration time: 60-400 us, Z-height: 10 mm, Ratio-multiplier: 10,000). The HTRF signal was then subsequently normalized to the neutral and active controls. Analysis and IC50 values were derived using KNIME analytics (KNIME Zurich) transformation and fitting within Collaborative Drug Discovery (Collaborative Drug Discovery USA). Ki was derived from the geometric mean of the IC50 values using the Cheng-Prustoff transformation.

Each structure is given as a SMILES string.

Sequence of CRBN-DDB1 (Q96SW2 whole entry): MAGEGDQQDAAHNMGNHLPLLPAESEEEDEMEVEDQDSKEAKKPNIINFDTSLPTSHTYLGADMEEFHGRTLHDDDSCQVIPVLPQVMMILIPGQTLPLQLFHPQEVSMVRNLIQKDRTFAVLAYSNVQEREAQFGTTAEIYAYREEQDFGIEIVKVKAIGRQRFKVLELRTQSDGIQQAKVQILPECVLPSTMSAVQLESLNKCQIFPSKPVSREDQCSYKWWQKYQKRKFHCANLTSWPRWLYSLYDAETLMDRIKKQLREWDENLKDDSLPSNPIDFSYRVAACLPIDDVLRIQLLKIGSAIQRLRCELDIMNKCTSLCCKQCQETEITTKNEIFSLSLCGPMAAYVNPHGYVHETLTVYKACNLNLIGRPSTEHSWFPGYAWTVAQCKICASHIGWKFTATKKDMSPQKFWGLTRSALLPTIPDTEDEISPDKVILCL
Sequence of CRBN-DDB1 (Q16531 whole entry partner): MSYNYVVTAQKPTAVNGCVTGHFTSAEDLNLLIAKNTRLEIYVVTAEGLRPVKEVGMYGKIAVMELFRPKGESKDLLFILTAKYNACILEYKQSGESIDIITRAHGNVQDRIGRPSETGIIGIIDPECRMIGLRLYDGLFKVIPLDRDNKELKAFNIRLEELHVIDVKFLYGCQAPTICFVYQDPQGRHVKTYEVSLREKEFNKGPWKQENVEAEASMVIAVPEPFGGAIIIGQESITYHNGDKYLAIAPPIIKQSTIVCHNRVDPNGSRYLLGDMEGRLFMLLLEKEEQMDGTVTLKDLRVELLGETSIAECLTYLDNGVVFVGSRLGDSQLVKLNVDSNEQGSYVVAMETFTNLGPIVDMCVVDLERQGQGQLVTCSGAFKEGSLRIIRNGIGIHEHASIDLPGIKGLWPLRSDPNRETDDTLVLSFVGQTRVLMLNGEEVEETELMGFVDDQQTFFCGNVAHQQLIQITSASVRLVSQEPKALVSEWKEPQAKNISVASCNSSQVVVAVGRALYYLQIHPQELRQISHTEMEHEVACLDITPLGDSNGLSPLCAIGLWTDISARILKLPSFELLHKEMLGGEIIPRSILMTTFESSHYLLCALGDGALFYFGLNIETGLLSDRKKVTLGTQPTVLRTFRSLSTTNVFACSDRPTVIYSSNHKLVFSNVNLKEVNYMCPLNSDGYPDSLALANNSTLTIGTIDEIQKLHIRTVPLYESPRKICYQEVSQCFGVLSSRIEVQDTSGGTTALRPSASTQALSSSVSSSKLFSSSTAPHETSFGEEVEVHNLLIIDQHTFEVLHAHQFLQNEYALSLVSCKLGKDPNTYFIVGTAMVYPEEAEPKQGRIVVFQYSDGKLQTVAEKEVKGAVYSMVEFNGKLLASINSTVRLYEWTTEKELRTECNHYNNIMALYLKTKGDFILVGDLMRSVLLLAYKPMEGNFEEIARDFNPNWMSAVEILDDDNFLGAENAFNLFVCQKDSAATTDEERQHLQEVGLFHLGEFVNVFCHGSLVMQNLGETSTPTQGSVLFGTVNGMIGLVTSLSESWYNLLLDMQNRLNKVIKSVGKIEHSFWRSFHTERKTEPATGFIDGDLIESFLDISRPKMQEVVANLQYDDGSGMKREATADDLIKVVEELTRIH

`CC(C)O[C@H]1C[C@@H](OC(=O)NC2CN(c3cc(F)c(C4CCC(=O)NC4=O)c(F)c3)C2)C1` (stereo partly shown) [Compound 39, (1s, 3s)-3-isopropoxycyclobutyl (1-(4-(2,6-dioxopiperidin-3-yl)-3,5-difluorophenyl)azetidin-3-yl)carbamate] came in with a Dmax at CDK2 (HEK293, HEK293 clonal line) of 50 to 80%. On CRBN-DDB1, this compound returned a Ki of at most 100 nM.

On CDK2 (HEK293, HEK293 clonal line), `CN(C(=O)N1CC(OC(=O)NC2CN(c3cc(F)c(C4CCC(=O)NC4=O)c(F)c3)C2)C1)C1CC1` (stereo not shown) [Compound 40, 1-(cyclopropyl(methyl)carbamoyl)azetidin-3-yl (1-(4-(2,6-dioxopiperidin-3-yl)-3,5-difluorophenyl)azetidin-3-yl)carbamate] returned a Dmax of 50 to 80%. In addition, the Ki at CRBN-DDB1 was at most 100 nM.

With `O=C1CCC(c2c(F)cc(N3CC(NC(=O)OC4CN(C(=O)C5CC5)C4)C3)cc2F)C(=O)N1` (stereo not shown) [Compound 41, 1-(cyclopropanecarbonyl)azetidin-3-yl (1-(4-(2,6-dioxopiperidin-3-yl)-3,5-difluorophenyl)azetidin-3-yl)carbamate], the Dmax on CDK2 (HEK293, HEK293 clonal line) was in the range of 10 to 50%. Also, the Ki at CRBN-DDB1 was at most 100 nM.

For `O=C1CCC(c2c(F)cc(N3CC(NC(=O)OC4CN(S(=O)(=O)C5CC5)C4)C3)cc2F)C(=O)N1` (stereo not shown) [Compound 42, 1-(cyclopropylsulfonyl)azetidin-3-yl (1-(4-(2,6-dioxopiperidin-3-yl)-3,5-difluorophenyl)azetidin-3-yl)carbamate], the Dmax at CDK2 (HEK293, HEK293 clonal line) is 10 to 50%. The same compound gave a Ki on CRBN-DDB1 of at most 100 nM.

Compound `CN(CC1CC1)C(=O)N1CC(OC(=O)NC2CN(c3cc(F)c(C4CCC(=O)NC4=O)c(F)c3)C2)C1` (stereo not shown) [Compound 43, 1-((cyclopropylmethyl)(methyl)carbamoyl)azetidin-3-yl (1-(4-(2,6-dioxopiperidin-3-yl)-3,5-difluorophenyl)azetidin-3-yl)carbamate] yielded a Dmax at CDK2 (HEK293, HEK293 clonal line) of 50 to 80%. Besides, the Ki at CRBN-DDB1 is at most 100 nM.

`COc1c(N2CC(NC(=O)OCC3CC4(CCC4)C3)C2)ccc(C2CCC(=O)NC2=O)c1F` (stereo not shown) [Compound 44, spiro[3.3]heptan-2-ylmethyl (1-(4-(2,6-dioxopiperidin-3-yl)-3-fluoro-2-methoxyphenyl)azetidin-3-yl)carbamate] had a Dmax at CDK2 (HEK293, HEK293 clonal line) above 80%. Moreover, on CRBN-DDB1, the Ki was in the range of 100 to 1000 nM.

On CDK2 (HEK293, HEK293 clonal line), `CN(C)C(=O)N1CC(OC(=O)NC2CN(c3cc(F)c(C4CCC(=O)NC4=O)c(F)c3)C2)C1` (stereo not shown) [Compound 45, 1-(dimethylcarbamoyl)azetidin-3-yl (1-(4-(2,6-dioxopiperidin-3-yl)-3,5-difluorophenyl)azetidin-3-yl)carbamate] had a Dmax of 10 to 50%. Further, the Ki at CRBN-DDB1 was at most 100 nM.

`CC(C)(C)O[C@H]1C[C@@H](OC(=O)NC2CN(c3cc(F)c(C4CCC(=O)NC4=O)c(F)c3)C2)C1` (stereo partly shown) [Compound 46, (1s, 3s)-3-(tert-butoxy)cyclobutyl (1-(4-(2,6-dioxopiperidin-3-yl)-3,5-difluorophenyl)azetidin-3-yl)carbamate]: at CDK2 (HEK293, HEK293 clonal line), the Dmax is 50 to 80%. Moreover, the Ki on CRBN-DDB1 was at most 100 nM.

Turning to `CC(C)(C)[Si](C)(C)O[C@H]1C[C@H](OC(=O)NC2CN(c3cc(F)c(C4CCC(=O)NC4=O)c(F)c3)C2)C1` (stereo partly shown) [Compound 47, (1r, 3r)-3-((tert-butyldimethylsilyl)oxy)cyclobutyl (1-(4-(2,6-dioxopiperidin-3-yl)-3,5-difluorophenyl)azetidin-3-yl)carbamate], the Dmax on CDK2 (HEK293 clonal line) was above 80%. At CRBN-DDB1, this compound gave a Ki of at most 100 nM.

`CC(C)(C)[Si](C)(C)O[C@H]1C[C@@H](OC(=O)NC2CN(c3cc(F)c(C4CCC(=O)NC4=O)c(F)c3)C2)C1` (stereo partly shown) [Compound 48] came in with a Dmax at CDK2 (HEK293 clonal line) above 80%. Also, the Ki on CRBN-DDB1 was at most 100 nM.

With `CC(C)(C)[Si](C)(C)O[C@H]1C[C@@H](COC(=O)NC2CN(c3cc(F)c(C4CCC(=O)NC4=O)c(F)c3)C2)C1` (stereo partly shown) [Compound 49, ((1s, 3s)-3-((tert-butyldimethylsilyl)oxy)cyclobutyl)methyl (1-(4-(2,6-dioxopiperidin-3-yl)-3,5-difluorophenyl)azetidin-3-yl)carbamate], the Dmax at CDK2 (HEK293, HEK293 clonal line) is above 80%. In addition, the Ki at CRBN-DDB1 is 100 to 1000 nM.

`CC(C)(C)[Si](C)(C)O[C@H]1C[C@H](COC(=O)NC2CN(c3cc(F)c(C4CCC(=O)NC4=O)c(F)c3)C2)C1` (stereo partly shown) [Compound 50, ((1r, 3r)-3-((tert-butyldimethylsilyl)oxy)cyclobutyl)methyl (1-(4-(2,6-dioxopiperidin-3-yl)-3,5-difluorophenyl)azetidin-3-yl)carbamate] showed a Dmax at CDK2 (HEK293, HEK293 clonal line) above 80%. The compound also displayed a Ki at CRBN-DDB1 of 100 to 1000 nM.

For the compound `O=C1CCC(c2c(F)cc(N3CC(NC(=O)OCC4CCCCC4)C3)cc2F)C(=O)N1` (stereo not shown) [Compound 51, cyclohexylmethyl (1-(4-(2,6-dioxopiperidin-3-yl)-3,5-difluorophenyl)azetidin-3-yl)carbamate], the Dmax at CDK2 (HEK293, HEK293 clonal line) was above 80%. On CRBN-DDB1, the Ki was at most 100 nM.

Regarding `C[C@H]1CC[C@H](COC(=O)NC2CN(c3cc(F)c(C4CCC(=O)NC4=O)c(F)c3)C2)CC1` (stereo partly shown) [Compound 52, ((1r, 4r)-4-methylcyclohexyl)methyl (1-(4-(2,6-dioxopiperidin-3-yl)-3,5-difluorophenyl)azetidin-3-yl)carbamate], at CDK2 (HEK293, HEK293 clonal line), the Dmax is above 80%. On CRBN-DDB1, this compound showed a Ki of at most 100 nM.

The compound `CC1(C)CCC(COC(=O)NC2CN(c3cc(F)c(C4CCC(=O)NC4=O)c(F)c3)C2)CC1` (stereo not shown) [Compound 53, (4,4-dimethylcyclohexyl)methyl (1-(4-(2,6-dioxopiperidin-3-yl)-3,5-difluorophenyl)azetidin-3-yl)carbamate] had a Dmax on CDK2 (HEK293, HEK293 clonal line) above 80%. Besides, the Ki on CRBN-DDB1 was at most 100 nM.

Regarding `O=C1CC[C@H](c2c(F)cc(N3CC[C@@H](NC(=O)OCC4CC5(CCC5)C4)C3=O)cc2F)C(=O)N1` [Compound 54, spiro[3.3]heptan-2-ylmethyl ((R)-1-(4-((R)-2,6-dioxopiperidin-3-yl)-3,5-difluorophenyl)-2-oxopyrrolidin-3-yl)carbamate], the Dmax on CDK2 (HEK293, HEK293 clonal line) was 50 to 80%. Further, at CRBN-DDB1, the Ki was at most 100 nM.

`O=C1CC[C@@H](c2c(F)cc(N3CC[C@@H](NC(=O)OCC4CC5(CCC5)C4)C3=O)cc2F)C(=O)N1` [Compound 55, spiro[3.3]heptan-2-ylmethyl ((R)-1-(4-((S)-2,6-dioxopiperidin-3-yl)-3,5-difluorophenyl)-2-oxopyrrolidin-3-yl)carbamate] returned a Dmax at CDK2 (HEK293, HEK293 clonal line) of 50 to 80%. This compound also returned a Ki on CRBN-DDB1 of 100 to 1000 nM.

On CDK2 (HEK293, HEK293 clonal line), `CC1(NC(=O)OCC2CC3(CCC3)C2)CN(c2cc(F)c(C3CCC(=O)NC3=O)c(F)c2)C1` (stereo not shown) [Compound 56, spiro[3.3]heptan-2-ylmethyl (1-(4-(2,6-dioxopiperidin-3-yl)-3,5-difluorophenyl)-3-methylazetidin-3-yl)carbamate] yielded a Dmax above 80%. The compound further displayed a Ki at CRBN-DDB1 of at most 100 nM.

At CDK2 (HEK293, HEK293 clonal line), `O=C1CCC(c2c(F)cc(N3C[C@@H](NC(=O)OCC4CC5(CCC5)C4)CC3=O)cc2F)C(=O)N1` (stereo partly drawn) [Compound 57, spiro[3.3]heptan-2-ylmethyl ((3S)-1-(4-(2,6-dioxopiperidin-3-yl)-3,5-difluorophenyl)-5-oxopyrrolidin-3-yl)carbamate] displayed a Dmax of 50 to 80%. On CRBN-DDB1, the Ki was 100 to 1000 nM.

Take `O=C1CCC(c2c(F)cc(N3C[C@H](NC(=O)OCC4CC5(CCC5)C4)CC3=O)cc2F)C(=O)N1` (stereo partly drawn) [Compound 58, spiro[3.3]heptan-2-ylmethyl ((3R)-1-(4-(2,6-dioxopiperidin-3-yl)-3,5-difluorophenyl)-5-oxopyrrolidin-3-yl)carbamate]: at CDK2 (HEK293, HEK293 clonal line), the Dmax lay in the range of 50 to 80%. This compound also showed a Ki on CRBN-DDB1 of at most 100 nM.
